Assay results: patent publication US10168342B2, “Lipid probes and uses thereof” (THE SCRIPPS RESEARCH INSTITUTE, priority 2015, dated 2019)
Read-outs that look alike come from different tables or passages of the source.

Legend:
[1] = system: PGE2 and TXB2 production in PMA-stimulated A549 cells; assay: Prostaglandin production in A549 cells; type: cell-based, human; settings: 10 μM, 30 min pre-treatment, then PMA
Experimental: The old media was removed from each plate and cells were washed with DPBS (2×3 mL) before adding freshly prepared media solutions containing vehicle or compound (3 mL/plate). After incubating for 30 min at 37° C., cells were then stimulated with PMA (10 nM) for 8 h. The media from the cells was then transferred to glass vials containing MS internal standards [PGE2-d9 (10 pmol), PGD2-d9 (10 pmol) and TXB2-d4 (10 pmol)], centrifuged (1,500×g, 5 min) to remove detached cells and then loaded onto preequilibrated reversed phase SPE cartridges (Phenomenex, Strata-X 33 μm, 60 mg/3 mL). After washing cartridges with 5% MeOH/H2O (3 mL), analytes were eluted with MeOH (1.0 mL) and the eluent was concentrated under a stream of N2. Concentrated samples were stored at −80° C. until the day of analysis when they were reconstituted in Mobile Phase A [100 μL, 30% CH3CN in H2O (0.1% AcOH)]. Media extracts were analyzed by LC/MS/MS with LC separation performed on a Kinetex reversed phase C18 column (50×4.6 mm, 2.6 μM particle size, 100Å). Mobile phase gradients were identical to those described above for prostamide analysis and the composition Mobile phases A and B differed only by lacking NH4OAc (5 mM). The following MS parameters were used to measure the indicated metabolites by MRM (precursor ion, product ion, collision energy, polarity): PGE2 (351, 271, 12, negative), PGE2-d9 (360, 280, 12, negative), TXB2 (369, 169, 6, negative), TXB2-d4 (373, 173, 6, negative). PGE2 and TXB2 levels were quantified by determining peak areas in relation to their deuterated internal standard.

[2] = molecular target: T1, AEA-DA lipid probe targets in Neuro2a cells (Mus musculus, UniProt Q5XJY4)
T1 sequence (Q5XJY4 51-377): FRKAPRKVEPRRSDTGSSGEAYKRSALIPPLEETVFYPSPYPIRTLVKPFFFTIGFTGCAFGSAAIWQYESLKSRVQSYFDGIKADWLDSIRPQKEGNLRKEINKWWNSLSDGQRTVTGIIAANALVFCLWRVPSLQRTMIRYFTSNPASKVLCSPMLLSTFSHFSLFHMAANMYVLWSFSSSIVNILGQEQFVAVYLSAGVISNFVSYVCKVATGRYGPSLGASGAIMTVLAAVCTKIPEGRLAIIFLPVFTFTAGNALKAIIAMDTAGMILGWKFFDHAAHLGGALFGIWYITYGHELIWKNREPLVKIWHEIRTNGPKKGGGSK

human NUCB1 = molecular target: T2, human NUCB1 (Homo sapiens, UniProt Q02818); assay: In vitro gel-based competition of AEA-DA probe labeling of NUCB1; type: binding; settings: for IC50: AEA-DA 5 μM, recombinant NUCB1 0.25 μM doped into HEK293T lysates, percent of maximal competition, read-out: IC50, blockade of AEA-DA probe labeling of NUCB1
T2 construct: made in house; host or cells: Escherichia coli BL21(DE3)
T2 sequence (Q02818 27-461): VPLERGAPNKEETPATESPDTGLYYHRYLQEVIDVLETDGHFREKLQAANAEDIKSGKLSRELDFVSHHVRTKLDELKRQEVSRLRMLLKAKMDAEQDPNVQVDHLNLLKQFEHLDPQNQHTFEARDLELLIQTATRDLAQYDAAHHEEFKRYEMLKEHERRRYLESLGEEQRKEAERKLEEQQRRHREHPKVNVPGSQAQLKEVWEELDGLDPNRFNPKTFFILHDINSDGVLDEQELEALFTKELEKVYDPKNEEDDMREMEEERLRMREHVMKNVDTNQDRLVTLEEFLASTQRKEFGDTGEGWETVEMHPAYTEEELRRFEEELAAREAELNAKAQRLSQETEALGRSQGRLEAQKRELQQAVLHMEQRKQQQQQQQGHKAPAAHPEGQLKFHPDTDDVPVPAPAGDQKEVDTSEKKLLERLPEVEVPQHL
Experimental: Human NUCB1 lacking the N-terminal signal sequence (M1-A26) was subcloned into pET45b(+) vector (Novagen) using the following PCR primers for amplification: 5′-CATCAATTGTGTGCCCCTGGAGAGAG-3′ and 5′-AGCAAGCTTTACAGATGTTGGGGCACC-3′. Following transformation of Escherichia coli strain BL21(DE3) with hNucb1ΔSSpET45b(+), a single colony was isolated and grown in Terrific Broth containing carbenicillin (100 mg/L) at 37° C. to an OD600 of 0.8. Protein expression was induced with IPTG (1.0 mM) and the cells were incubated at 20° C. with shaking overnight. After centrifugation, cells pellets were resuspended in cold buffer containing HEPES (0.05M), NaCl (0.03 M), imidazole (5.0 mM), DNase (0.1 mg/mL), MgCl2 (1.0 mM), CaCl2 (1.0 mM) and EDTA-free Complete Protease Inhibitor Cocktail and lysed using a microfluidizer. […] The suspension was applied to a column and the retained resin was washed with HEPES buffer containing 500 mM NaCl until the eluent was clean of DNA and protein (A280/260) and then with HEPES buffer containing 10 mM imidazole (5 mL/1 mL resin). Protein was then slowly eluted with HEPES buffer containing 50 mM imidazole in 1.0 mL fractions and the combined fractions containing hNUCB1 were passed through a Sephadex G-25M column to remove imidazole and concentrated in an Amicon centrifugal filter device (Millipore). These conditions produced hNUCB1 at approximately 10 mg/L of culture; however, several lower molecular weight fragments were also present in this preparation. hNUCB1 was further purified by size exclusion chromatography.
Cell lysates (1.0 mg/mL), the indicated lipid probe (2.5 or 5 μM) and, for recombinant NUCB1 competition experiments, purified hNUCB1 (250 nM) and CaCl2 (100 μM) were mixed on ice. DMSO or competitors were then added to the proteome mixture (50 μM) in 96-well plates and each sample was incubated for 15 min at 37° C. The samples were then irradiated with UV light and subjected to previously described click chemistry conditions. As before, each reaction was quenched with 4×SDS loading buffer (17 μL), and proteins were resolved using SDS-PAGE (10% acrylamide gel) and analyzed by in-gel fluorescent scanning on a Hitachi FMBIO-II flatbed fluorescence scanner. NUCB1 competition was quantitatively assessed by measuring the fluorescent intensity of the corresponding gel band using ImageJ 1.48v and normalizing this value by a non-competed gel band to control for loading differences.
Metabolite data are shown as mean±SEM (n=3-5/group). Differences between two groups were determined using Student's t test (unpaired, two-tailed) and significance was denoted for P values<0.05.

Compound	PGE2 synthesis from endogenous AA [1]	TXB2 synthesis from endogenous AA [1]	SILAC ratio Parl ([2]; competitor 25 μM)	competition of AEA-DA probe labeling of recombinant NUCB1 by lipids (human NUCB1; AEA-DA 5.0 μM, lipids 20×, NUCB1-transfected HEK293T lysates)	SILAC ratio Parl ([2]; competitor 200 μM)	IC50 (human NUCB1) [µM]	SILAC ratio Parl ([2]; competitor 10 μM)	SILAC ratio Parl ([2]; competitor 50 μM)	SILAC ratio Parl ([2]; competitor 100 μM)
O=C(/C=C/c1cccnc1)NCCCCC1CCN(C(=O)c2ccccc2)CC1 [FK-866, reference compound]	no effect	complete suppression	1.3	–	–	–	–	–	–
CCCCC/C=C\C/C=C\C/C=C\C/C=C\CCCC(=O)NCCO [AEA, anandamide, reference compound]	–	–	–	blocked	1.3	–	–	–	–
CN1CCN(C(=O)c2c(-c3ccccc3)c3cc([N+](=O)[O-])ccc3n2C)CC1 [KML110, (1-Methyl-5-nitro-3-phenyl-1H-indol-2-yl)(4-methylpiperazin-1-yl)methanone]	suppress	suppress	1.3	–	–	9.6	–	–	–
C=CCN(C)CCCCCCOc1ccc(C(=O)c2ccc(Br)cc2)c(F)c1 [Ro 48-8071, reference compound]	–	–	1.1	–	–	–	–	–	–
CN1CCN(C(=O)c2[nH]c3ccc([N+](=O)[O-])cc3c2-c2ccccc2)CC1 [MJN228, (4-Methylpiperazin-1-yl)(5-nitro-3-phenyl-1H-indol-2-yl)methanone]	suppress	suppress	1.4	–	–	3.3	1.3	1.1	1.9
